Values after ≈ are worked out from the molar mass of the structure shown.
Experiments:
E. cloacae ATCC 29893 = assay: Resistance frequency, large inoculum method; assay type: cell-based, Enterobacter cloacae; conditions: wild-type E. cloacae ATCC 29893, 8×MIC
Method: (§1) Selection of resistant mutants. Resistant mutants were selected using the large inoculum method. Briefly, E. coli BW25113, K. pneumoniae ATCC 27736, or E. cloacae ATCC 29893 (˜1.0×10^7 c.f.u.) was plated on 100-mm plates of Luria Bertani agar containing 8, 16, 32, or 64 μg/mL, lolamycin. For E. coli ΔtolC (JW5503), ˜1.0×10^7 c.f.u. was plated on 100-mm plates of Luria Bertani agar containing 0.063, 0.13, 0.25, 0.5 μg/mL lolamycin. Colonies were visible after incubating at 37° C. for 48 h. Resistant colonies were confirmed by growing colonies in selective media with the same concentration of lolamycin.

E. cloacae AR0163 = assay: Bacterial sepsis survival model; assay type: in vivo, CD-1 mice; conditions: colistin-resistant E. cloacae, 100 mg/kg IP twice daily for 3 days (FIG. 7F)
[1] = Mouse maximum tolerated dose / tolerability; assay type: in vivo
Method: Mouse maximum tolerated dose (MTD) of compound 2 and lolamycin. […] In these studies, 10- to 12-week-old female C57BL/6 mice purchased from Charles River Laboratories were used. The maximum tolerated dose (MTD) of a single compound via IP injection was determined first. Compound 2 and lolamycin were formulated in 50% DMSO, 50% PEG400. Compound 2 and lolamycin were given by intraperitoneal (IP) injection. All the mice were monitored for signs of toxicity for 2 weeks. For multiple doses, the compound was given by daily IP injection for 5 consecutive days and the mice were monitored for signs of toxicity for 1 month. The MTD was the highest dosage with acceptable toxicity (for example, <20% weight loss).
Next, the MTD of lolamycin via oral gavage was determined. Lolamycin was formulated in 20% DMSO, 30% Water, and 50% PEG400. Lolamycin was given via oral gavage. All the mice were monitored for signs of toxicity for 2 weeks. For multiple doses, compound was given twice daily orally for 3 consecutive days and the mice were monitored for signs of toxicity. The MTD was the highest dosage with acceptable toxicity (for example, <20% weight loss). […] The MTD of lolamycin was used to inform the dosing schedule used in subsequent efficacy studies.

[2] = system: Streptococcus parasanguinis; assay: MIC, gut commensal bacteria, micro-dilution broth
Escherichia coli = assay: Resistance frequency, large inoculum method; assay type: cell-based
Method: as §1

[3] = Pharmacokinetic assessment in mice (serum, LC-MS/MS); assay type: in vivo, C57BL/6 mice; conditions: for Cmax / half-life / AUC: female, 200 mg/kg single dose; for Cmax / half-life: C57BL/6, mouse, serum; for AUC: C57BL/6, mouse serum
Method: C57BL/6 mice were treated with lolamcyin at a single dose of 200 mg/kg via IP injection (formulated in 50% DMSO and 50% PEG400) or oral gavage (formulated in 20% DMSO, 30% water, and 50% PEG400) with three mice per time point (0, 15, 30, 45, 60, 120, 240, 480, 960, and 1,440 min). Mice were then sacrificed and serum concentrations of lolamycin were determined by liquid chromatography-tandem mass spectrometry (LC-MS/MS). Oral bioavailability was calculated by comparing the concentration of lolamycin in mouse serum levels resulting from these two administration routes.
Pharmacokinetic Assessment of compound 2 and lolamycin. The protocol was approved by the Institutional Animal Care and Use Committee (IACUC) at the University of Illinois at Urbana-Champaign. In these studies, 10- to 12-week-old female C57BL/6 mice purchased from Charles River Laboratories were used. Mice were randomly chosen and divided into subsequent groups. No additional randomization was used to allocate the experimental groups; blinding was not performed for subsequent quantitation. First, the pharmacokinetic assessment via intraperitoneal injection was determined. Compound 2 and lolamycin were formulated in 50% DMSO and 50% PEG400. Mice were treated with compound 2 (200 mg/kg) or lolamycin (200 mg/kg) via intraperitoneal injection, with three mice per time point (0, 15, 30, 45, 60, 120, 240, 480, 960, and 1,440 min). At the specified time points, mice were killed, blood was collected and centrifuged, and the serum was frozen at −80° C. until analysis. The proteins in a 10-μL aliquot of serum were precipitated by the addition of 50 μL methanol with the addition of 10 μL internal standard. The sample was then vortexed and centrifuged to remove the proteins. Supernatants were analyzed with the QTRAP 5500 LC/MS/MS system (Sciex) in the Metabolomics Laboratory of the Roy J. Carver Biotechnology Center, University of Illinois at Urbana-Champaign.
Next, the pharmacokinetic assessment via oral gavage was determined. Lolamycin was formulated in 20% DMSO, 30% water, and 50% PEG400. Mice were treated with lolamycin (200 mg/kg) via oral gavage, with three mice per time point (0, 15, 30, 45, 60, 120, 240, 480, 960, and 1,440 min). At the specified time points, mice were killed, blood was collected and centrifuged, and the serum was frozen at −80° C. until analysis similar to before. Software Analyst 1.6.2 was used for data acquisition and analysis. The 1200 Series HPLC system (Agilent Technologies) includes a degasser, an autosampler and a binary pump. The liquid chromatography separation was performed on an Agilent Zorbax SB-Aq column (4.6×50 mm; 5 μm) with mobile phase A (0.1% formic acid in water) and mobile phase B (0.1% formic acid in acetonitrile). The autosampler was set at 10° C. The injection volume was 5 μL. Mass spectra were acquired using electrospray ionization with a voltage of 5,500 V. The source temperature was 450° C. The curtain gas, ion source gas 1 and ion source gas 2 were […], respectively. Multiple reaction monitoring was used for quantitation with external standard. The limit of quantitation of (S/N=10) was 1 nM. Pharmacokinetic parameters were calculated with a one-compartment model using a nonlinear regression program (Phoenix WinNonlin Version 8.1; Certara USA).

Proteus mirabilis = assay: MIC, gut commensal bacteria, micro-dilution broth
Salmonella typhimurium = assay: MIC, micro-dilution broth method (CLSI); assay type: cell-based; conditions: Salmonella enterica, ATCC 14028 / TYPHIMURIUM; Salmonella typhimurium ATCC14028
K. pneumoniae ATCC 27736 = assay: Resistance frequency, large inoculum method; assay type: cell-based, Klebsiella pneumoniae; conditions: wild-type K. pneumoniae ATCC 27736, 8×MIC
Method: as §1

[4] = C57BL/6 mice, daily dosing of 200 mg/kg for 5 consecutive days, IP
[5] = C57BL/6 mice, single dose of 200 mg/kg, IP
[6] = mice, 100 mg/kg twice a day for three days, IP

Compound: Cc1cc(-c2c[nH]nc2-c2cccc(OCc3cccc(C#N)c3)c2)cc(C)n1 [Compound 12, 3-((3-(4-(2,6-dimethylpyridin-4-yl)-1H-pyrazol-3-yl)phenoxy)methyl)benzonitrile]
- resistance frequency (E. cloacae ATCC 29893): 5.2×10^−7
- efficacy, survival (E. cloacae AR0163): showed the efficacy
- tolerability [1, 4]: well tolerated
- tolerability [1, 5]: well tolerated
- tolerability [1, 6]: well-tolerated
- tolerability ([1]; mice, 200 mg/kg twice a day for three days, oral gavage, listed as Lolamycin, 200 mg/kg): well tolerated
- tolerability ([1]; mice, 200 mg/kg twice a day for three days, oral gavage, listed as lolamycin, 200 mg/kg): well-tolerated
- MIC ([2]; Streptococcus parasanguinis): > 128 µg/mL
- MIC ([2]; Streptococcus parasanguinis KLE 2375, BHI-ych, listed as Lolamycin): >128 µg/mL
- resistance frequency (Escherichia coli; E. coli ΔtolC JW5503, 32×MIC): 1.8×10^−8
- resistance frequency (Escherichia coli; wild-type E. coli BW25113, 8×MIC): 3.4×10^−7
- Cmax ([3]; IP injection): 38.2 µM
- half-life ([3]; IP injection): 2.07 h
- Cmax ([3]; oral gavage): 26.4 µM
- half-life ([3]; oral gavage): 1.1 h
- AUC ([3]; IP injection): 43400 ng·h/mL
- AUC ([3]; oral gavage): 20500 ng·h/mL
- Oral bioavailability ([3]; mice, oral vs IP, 200 mg/kg): significant oral bioavailability
- MIC (Proteus mirabilis; Proteus mirabilis ATCC 35659, listed as Lolamycin): >128 µg/mL
- MIC (Proteus mirabilis; Proteus mirabilis, ATCC35659): > 128 µg/mL
- MIC (Salmonella typhimurium): 1 µg/mL (≈ 2.63 µM)
- resistance frequency (K. pneumoniae ATCC 27736): 1.2×10^−8

Compound: Fc1ccc(COc2cccc(-c3n[nH]cc3-c3ccncc3)c2)cc1 [Compound 2, 4-(3-(3-((4-fluorobenzyl)oxy)phenyl)-1H-pyrazol-4-yl)pyridine]
- tolerability [1, 4]: well tolerated
- tolerability [1, 5]: well tolerated
- tolerability [1, 6]: well-tolerated
- resistance frequency (Escherichia coli; E. coli ΔtolC JW5503, 32×MIC): 9.2×10^−7

— patent US20250051300A1, “GRAM-NEGATIVE SPECIFIC ANTIBIOTICS SPARING EFFECT ON GUT MICROBIOME” (THE BOARD OF TRUSTEES OF THE UNIVERSITY OF ILLINOIS, priority 2021, published 2025)
